From patent publication US11433019B2, “Ganoderma lucidum extract-preparing method using eco-friendly extraction technique, Ganoderma lucidum extract prepared thereby, and anti-aging cosmetic composition comprising same extract” (AMOREPACIFIC CORPORATION, priority 2017, dated 2022) come the findings set out here.

Each structure is given as a SMILES string.

Assay [1] concerns matrix metalloprotease-1 (MMP-1). Briefly: MMP-1 inhibitory effect: free MMP-1 in media of UV-irradiated HS68 fibroblasts (kit, Amersham RPN2610). The format is cell-based. The settings on record: 5 μM, UV 30 mJ, treated twice for 48 hours, corrected with control without test substance. As for the experimental part:
In order to confirm the inhibitory effect of Ganoderma lucidum extracts extracted with the aqueous cyclodextrin solution according to the present disclosure on matrix metalloprotease-1 (MMP-1) expression increased by ultraviolet rays, fibroblasts cells (HS68) were seeded at a concentration of 0.75*10^5 in each well of a 12 well plate and made to be a starvation state for 24 hours, then washed with phosphate buffered saline and irradiated with UV (30 mJ). Subsequently, as a positive control, 1, 10, and 50 ppm of Ganoderma lucidum extracts extracted with 5 μM of retinoic Acid (RA) and an aqueous cyclodextrin solution were treated twice for 48 hours, and the amount of free MMP-1 in the media was measured using a kit (Amersham, RPN2610).

A further assay deals with collagenase. Briefly: Collagenase production/expression in human fibroblasts (antibody-based absorbance at 405 nm). The class given is cell-based. The note with it: 5 μM, 24 hours, untreated group = 100. As for the experimental part: The inhibitory ability of Ganoderma lucidum extracts extracted with the aqueous cyclodextrin solution according to the present disclosure on collagenase production was measured in comparison with retinoic acid. Human fibroblasts were added at 5,000 cells/well in a 96-well microtiter plate containing Dulbecco's Modified Eagle's Media (DMEM) medium containing 2.5% fetal bovine serum and incubated in an incubator (5% CO2, 37° C.) until the growth reached 70 to 80%. Then, the Ganoderma lucidum extracts, which were extracted using the 1% β-CD aqueous cyclodextrin solution in combination with ultrasonic extraction, were treated with the cells at a concentration of 100 μg/ml for 24 hours, and then the cell culture solution was collected.
Then, the degree of collagenase production in the thus-collected cell culture solution was measured using a commercially available collagenase measuring instrument (GE Healthcare Life Sciences). […]
The absorbance of the yellowish 96-well plate was measured at 405 nm using an absorptiometer, and the expression level of collagenase was calculated by Calculation Equation 1 below. In particular, the reaction absorbance of the collected cell culture solution in the untreated group was taken as the absorbance of the control group. […]
A: Absorbance of the test substance-treated cell group
B: Absorbance of control group […]

For `CC1=C(/C=C/C(C)=C/C=C/C(C)=C/C(=O)O)C(C)(C)CCC1` [Retinoic acid, retinoic Acid], the “Extracellular MMP-1 (% of control)” value in assay [1] is 66.2% of control. Also, in the assay with collagenase, the “Degree of Collagenase Expression (%)” value came to 75.0%.
